Experimental data reported in patent US8589175B2, “Optimization and individualization of medication selection and dosing” (Children's Hospital Medical Center, priority 2005, dated 2013).

How the values were obtained:
[1] = system: CYP2C9; assay: dosing recommendation per CYP2C9 metabolizer subgroup as percentage of usual population dose (Equations 4-6); set-up: species or system human; details: for 1 al (effect of 1 non-functional allele) / 2 al (effect of 2 non-functional alleles) / 2 al/1 al: CYP2C9; for UM (%) dosing recommendation: CYP2C9, head prints UM; for UM (%) dosing recommendation / IM (%) dosing recommendation / PM (%) dosing recommendation: percent of usual dose; for 2 al/1 al: ratio of the two effects; for IM (%) dosing recommendation: CYP2C9 intermediate metabolizers; for PM (%) dosing recommendation: CYP2C9 poor metabolizers
Excerpt: Determining “Minimal Dose Adjustment Units”
2C9 has 2 MDA units per non-functional allele.

[2] = system: CYP2C19; assay: dosing recommendation per CYP2C19 metabolizer subgroup as percentage of usual population dose (Equations 4-6)
Excerpt: Assuming the goal is to maintain the same AUC for all three subpopulations of patients, the following subpopulation dosing relationships hold: DPM=DEM*(AUCEM/AUCPM) OR DPM=DEM*R if R=(AUCEM/AUCPM) (Equation 2) DIM=DEM*(AUCEM/AUCIM) OR DIM=DEM*S if S=(AUCEM/AUCIM) (Equation 3)
By substituting equations 2 and 3 into equation 1, and then rearranging the equation to solve for the percent dose adjustment needed for each subgroup relative to the population dose: DEM(%)=100/(fEM+fIM*S+fPM*R) (Equation 4) DPM(%)=R*DEM (Equation 5) DIM(%)=S*DEM (Equation 6) Equations 4, 5, and 6 show how the dosing for the more homogeneous subgroups is determined and how the dosing results are expressed as a fraction of the clinician's usual heterogeneous whole group dosages. Determining “Minimal Dose Adjustment Units”
Example: The approach in the previous section leads to individualized initial drug dose recommendations for each of the 3 subgroups (extensive, poor and intermediate metabolizers). Each subgroup represents a specific number of functional alleles for the specific DME (extensive metabolizers have 2 functional, intermediate metabolizers have 1 functional and poor metabolizers have 0 functional). The resultant dosing recommendations are expressed as percentages of the clinician's usual starting dose. It is possible to investigate the effect of increasing numbers of non-functional alleles using these new dosing recommendations. For example, if DRX % is the dosing recommendation for subgroup X expressed as a percentage of the clinician's usual starting dose then the following are true: Effect of […] 1 non-functional allele=(DREM %−DRIM %)/DREM % Effect of 2 non-functional allele=(DREM %−DRPM %)/DREM % Below is a spreadsheet (Table 3) that examines this for CYP2D6, CYP2C19 and CYP2C9. […] 2C9 has 2 MDA units per non-functional allele.

[3] = system: CYP2D6; details: human

| 1 al (effect of 1 non-functional allele) [1] | 2 al (effect of 2 non-functional alleles) [1] | UM (%) dosing recommendation [1] [%] | 2 al/1 al [1] | IM (%) dosing recommendation [1] [%] | PM (%) dosing recommendation [1] [%] | 1 al (effect of 1 non-functional allele) [3] | 2 al (effect of 2 non-functional alleles) [3] | EM (%) dosing recommendation [3] [%] | IM (%) dosing recommendation [3] [%] | PM (%) dosing recommendation [3] [%] | UM (%) dosing recommendation [3] [%] | 1 al (effect of 1 non-functional allele) ([2]; human) | 2 al (effect of 2 non-functional alleles) ([2]; human) | IM (%) dosing recommendation ([2]; human) [%] | PM (%) dosing recommendation ([2]; human) [%] | SMILES | other results |
| --- | --- | --- | --- | --- | --- | --- | --- | --- | --- | --- | --- | --- | --- | --- | --- | --- | --- |
| 0.50 | 0.80 | 100 | 1.60 | 50 | 20 |  |  |  |  |  |  |  |  |  |  | CCCCc1nc(Cl)c(CO)n1Cc1ccc(-c2ccccc2-c2nn[nH]n2)cc1 [Cozaar] |  |
| 0.36 | 0.64 | 110 | 1.75 | 70 | 40 |  |  |  |  |  |  |  |  |  |  | O=C1NC(=O)C(c2ccccc2)(c2ccccc2)N1 [Dilantin] |  |
| 0.30 | 0.65 | 100 | 2.17 | 70 | 35 |  |  |  |  |  |  |  |  |  |  | Cc1ccc(-c2cc(C(F)(F)F)nn2-c2ccc(S(N)(=O)=O)cc2)cc1 [Celebrex] |  |
| 0.20 | 0.65 | 100 | 3.25 | 80 | 35 |  |  |  |  |  |  |  |  |  |  | CC(C)n1c(/C=C/[C@@H](O)C[C@@H](O)CC(=O)O)c(-c2ccc(F)cc2)c2ccccc21 (racemic) [Lescol] |  |
| 0.42 | 0.83 | 120 | 2.00 | 70 | 20 |  |  |  |  |  |  |  |  |  |  | CCC1=C(C)CN(C(=O)NCCc2ccc(S(=O)(=O)NC(=O)N[C@H]3CC[C@H](C)CC3)cc2)C1=O [Amaryl] |  |
|  |  |  |  |  |  | 0.35 | 0.72 | 127 | 82 | 36 | 173 | 0.00 | 0.00 | 100 | 100 | CNCCCC12CCC(c3ccccc31)c1ccccc12 [maprotiline] | UM (%) dosing recommendation ([2]; human): 100%; 2 al/1 al [3]: 2.02 |
| 0.58 | 0.83 | 120 | 1.43 | 60 | 20 |  |  |  |  |  |  |  |  |  |  | CCCNC(=O)NS(=O)(=O)c1ccc(Cl)cc1 [Diabinese] |  |
|  |  |  |  |  |  | −0.16 | −0.32 | 92 | 107 | 121 | 77 | 0.25 | 0.51 | 82 | 54 | O=C(NCCN1CCOCC1)c1ccc(Cl)cc1 [moclobemide] | 2 al/1 al ([2]; human): 2.00; UM (%) dosing recommendation ([2]; human): 110% |
|  |  |  |  |  |  | 0.35 | 0.72 | 127 | 82 | 36 | 173 | 0.13 | 0.54 | 91 | 46 | CN(C)CCC=C1c2ccccc2COc2ccccc21 [doxepin] |  |
|  |  |  |  |  |  | 0.31 | 0.72 | 131 | 91 | 37 | 178 | 0.53 | 0.59 | 62 | 45 | CC(CN(C)C)CN1c2ccccc2CCc2ccccc21 (stereo not drawn) [trimipramine] | 2 al/1 al ([2]; human): 1.12; UM (%) dosing recommendation ([2]; human): 111%; 2 al/1 al [3]: 2.35 |

| SMILES | 1 al (effect of 1 non-functional allele) [1] | 2 al (effect of 2 non-functional alleles) [1] | UM (%) dosing recommendation [1] [%] | 2 al/1 al [1] | IM (%) dosing recommendation [1] [%] | PM (%) dosing recommendation [1] [%] | 1 al (effect of 1 non-functional allele) [3] | 2 al (effect of 2 non-functional alleles) [3] | EM (%) dosing recommendation [3] [%] | IM (%) dosing recommendation [3] [%] | PM (%) dosing recommendation [3] [%] | UM (%) dosing recommendation [3] [%] | 1 al (effect of 1 non-functional allele) ([2]; human) | 2 al (effect of 2 non-functional alleles) ([2]; human) | IM (%) dosing recommendation ([2]; human) [%] | PM (%) dosing recommendation ([2]; human) [%] | other results |
| --- | --- | --- | --- | --- | --- | --- | --- | --- | --- | --- | --- | --- | --- | --- | --- | --- | --- |
| CC(=O)CC(c1ccccc1)c1c(O)c2ccccc2oc1=O (stereo not drawn) [Coumadin] | 0.62 | 0.85 | 130 | 1.38 | 50 | 20 |  |  |  |  |  |  |  |  |  |  |  |
| CN(C)CCC=C1c2ccccc2CCc2ccccc21 [amitryptiline] |  |  |  |  |  |  | 0.17 | 0.34 | 111 | 92 | 73 | 130 |  |  |  |  | 1 al (effect of 1 non-functional allele) ([2]; CYP2C19): 0.26; 2 al (effect of 2 non-functional alleles) ([2]; CYP2C19): 0.51; UM (%) dosing recommendation ([2]; CYP2C19, head prints UM, percent of usual dose): 109%; 2 al/1 al ([2]; CYP2C19, ratio of the two effects): 2.00; IM (%) dosing recommendation ([2]; CYP2C19 intermediate metabolizers, percent of usual dose): 81%; PM (%) dosing recommendation ([2]; CYP2C19 poor metabolizers, percent of usual dose): 53%; 2 al/1 al [3]: 2.00 |
